Test results published in patent US20060293187A1, “Herbicidal mixtures based on 3-phenyluracils” (BASF Aktiengesellschaft, priority 2003, published 2006).

Columns and labels:
Format in all cases: in vivo
Conditions in all cases: 21 days, 0 = no damage, 100 = complete destruction
[1] = system: Alopecurus myosuroides; experiment: Greenhouse experiment, herbicidal activity, post-emergence method
Excerpt: (§1) For the post-emergence treatment, the test plants were first grown to a height of 3 to 20 cm, depending on the plant habit, and only then treated. Here, the herbicidal compositions were suspended or emulsified in water as distribution medium and sprayed using finely distributing nozzles.
(§2) The respective components I and B and/or C were formulated as 10% by weight strength emulsion concentrate and introduced to the spray liquor with the amount of solvent system used for applying the active compound. In the examples, the solvent used was water.
(§3) The test period extended over 21 days. During this time, the plants were tended, and their response to the treatments with active compound was evaluated.
(§4) The evaluation for the damage caused by the chemical compositions was carried out using a scale from 0 to 100%, compared to the untreated control plants. Here, 0 means no damage and 100 means complete destruction of the plants.
(§5) In the examples below, the value E which is to be expected if the activity of the individual compounds is just additive was calculated using the method of S. R. Colby (1967) “Calculating synergistic and antagonistic responses of herbicide combinations”, Weeds 15, p. 22 ff. E=X+Y−(X·Y/100) where
(§6) X=effect in percent using active compound I at an application rate a;
(§7) Y=effect in percent using active compound B at an application rate b;
(§8) E=expected effect (in %) of I+B at application rates a+b.
(§9) If the value […] in this manner is higher than the value E calculated according to Colby, a synergistic effect is present.

[2] = system: Amaranthus retroflexus; experiment: Greenhouse experiment, herbicidal activity, pre-emergence method
Experimental: as §2, §3, §4, §5, §6, §7, §8, §9

[3] = system: Echinocloa crus-galli; experiment: Greenhouse experiment, herbicidal activity, post-emergence method
Excerpt: as §1, §2, §3, §4, §5, §6, §7, §8, §9

[4] = application rate 1.95 g/ha of each active compound applied (mixture 1.95 + 1.95 g/ha)
[5] = application rate 0.98 g/ha of each active compound applied (mixture 0.98 + 0.98 g/ha)

Row | Compound | Herbicidal activity against Alopecurus myosuroides, found [1, 4] [%] | Herbicidal activity against Alopecurus myosuroides, found ([1]; application rate 3.91 g/ha of each active compound applied (mixture 3.91 + 3.91 g/ha)) [%] | Herbicidal activity against Amaranthus retroflexus, found [2, 5] [%] | Herbicidal activity against Amaranthus retroflexus, found [2, 4] [%] | Herbicidal activity against Echinocloa crus-galli, found [3, 5] [%] | Herbicidal activity against Echinocloa crus-galli, found [3, 4] [%]
1 | 4-Hydroxy-3-{[2-methoxyethoxy)methyl-6-(trifluormethyl)-3-pyridinyl]carbonyl}bicyclo[3.2.1]oct-3-en-2-one [B.2] | 0 | 0 |  |  |  | 
2 | Cc1nc(C(F)(F)F)ccc1C(=O)C1=C(O)C2CCC(C2)C1=O (stereo not drawn) [B.1, 4-Hydroxy-3-{[2-methyl-6-(triflurmethyl)-3-pyridinyl]carbonyl}ci-cyclo[3.2.1]oct-3-en-2-one] |  |  | 0 | 20 | 30 | 60
